Experimental data reported in patent US5608143A, “External regulation of gene expression” (E. I. Du Pont de Nemours and Company, priority 1994, dated 1997).

How the values were obtained:
[1] = tested on: 2-1 gene (In 2-1 mRNA); test: RNA slot blot / Northern analysis of 2-1 mRNA in roots of chemically treated corn; type: in vivo, corn (Missouri 17); conditions: six hours, corn roots; for In 2-1: net amount of radioactivity hybridizing to treated RNA after subtraction of untreated RNA: 200 mg/l hydroponic, slot blot 2 μg total RNA
Method: Missouri 17 corn seeds were surface sterilized by soaking them in a solution of 10% commercial bleach and 0.1% sodium dodecylsulfate (SDS) for 30 minutes. Seeds were then rinsed thoroughly in a buchner funnel with sterile distilled water and prepared for germination by placing them onto 5-6 layers of moist sterile paper towels in a 8"×10" glass baking tray. The tray was covered with aluminum foil and placed in the dark in a 30° C. incubator for 48-72 hours to allow the seeds to germinate. After germination, seedlings were grown hydroponically in an apparatus consisting of a sheet of 8 mesh stainless steel wire gauze suspended over the top of a 2 liter glass beaker filled with sterile half strength Hoagland's solution (referred to 0.5× Hoagland's) so that the roots extended through the mesh and into the media. The hydroponic apparatus was aerated by introducing humidified air into the bottom of the beaker with a gas diffusing stone commonly used in tropical fish aquariums. The apparatus was covered with a loose-fitting sheet of aluminum foil and placed in a reach-in growth chamber illuminated by both fluorescent and incandescent lamps at an intensity of 4400 lux. Seedlings were grown at 28° C., 75% relative humidity using a 16 hour day/8 hour night cycle. After two days, the foil was removed and plants were grown for an additional 5-6 days. Any 0.5× Hoagland's lost to evaporation was replenished every 2-3 days. […] Plants were then allowed to grow for six additional hours prior to harvest.
A nitrocellulose filter (Schlicher and Schull BA-85) was wetted by soaking it twice for 10 minutes in water, followed by a 10 minute soak in 1M ammonium acetate. The filter was then placed into a Slot Blot apparatus (Schleicher and Schuell, Inc., Keene, N.H. 03431, CAT #SRC072/0). […] Forty pl of denaturation buffer (30% formaldehyde, 100 mM sodium phosphate pH 6.8) were added to each sample and all samples were then incubated at 65° C. for 20-30 minutes and quick-cooled in an ice slurry for 5 minutes. Thirty μl of 4M ammonium acetate were added to each sample and the 150 μl samples were added to slots in the blotting cell with the aid of a 10-15 mm Hg vacuum. The filter was removed from the blotting cell, air dried and baked for 2 hours at 70° C. in vacuo.
The filter was cut into six pieces such that each piece had one slot cox.raining RNA from each of the three treatments described above. One of the filter pieces was incubated with 10 ml of prehybridization buffer (50% deienized formamide, 5× SSC, 5× Denhardt's, 100 μg/ml denatured calf thymus DNA, 20 μg/ml homopoly(A), 40 mM sodium phosphate pH 6.8 and 0.5% BSA) in a heat-sealable bag for 6 hours at 42° C. with occasional mixing. The filter piece was then hybridized with nick-translated pIn 2-1. This was performed by discarding the prehybridization solution from the bag and replacing it with 2.5 ml of hybridization buffer (50% deionized formamide, 5× SSC, 100 μg/ml denatured calf thymus DNA, 20 μg/ml homopoly(A) and 40 mM sodium phosphate, pH 6.8) containing 1.25×10^7 cpm of nick translated 2-1 plasmid described above. Nick-translated plasmid was denatured by boiling for 10 minutes followed by quick-cooling on ice. The filter was then hybridized overnight at 42° C. with occasional mixing.

[2] = tested on: tobacco leaf pieces (callus formation); test: Callus formation of leaf pieces from kanamycin-resistant tobacco shoots on selective medium; type: cell-based; conditions: sixteen kanamycin-resistant shoots, three weeks; 10 ppb chlorsulfuron and/or 100 ppm D5293
Text: Callus formation was scored as plus or minus after three weeks of growth.

[3] = tested on: 2-2 gene (In 2-2 mRNA); test: RNA slot blot / Northern analysis of 2-2 mRNA in roots of chemically treated corn; type: in vivo, corn (Missouri 17); conditions: 200 mg/l hydroponic, six hours, corn roots, slot blot 2 μg total RNA
Method: Details of the techniques used to perform the procedures used in Example 2 are presented in Example 1. The cDNA library made using poly(A)^+ RNA from the roots of N-(aminocarbonyl)-2-chlorobenzenesulfonamide-treated Missouri 17 corn plants (described in Example 1) was analyzed for additional cDNA clones representing mRNAs induced by substituted benzenesulfonamides. […] This colony was designated In 2-2.
A small scale plasmid preparation was performed on the plasmid contained in colony In 2-2. This plasmid was designated pIn 2-2. An aliquot of pIn 2-2 was nick translated as described earlier. A slot blot containing total RNA from N-(aminocarbonyl)-2-chlorobenzenesulfonamide-treated and untreated roots was prepared and probed with nick-translated pIn 2-2 as described for pIn 2-1 in Example 1.
The pIn 2-2 small scale plasmid preparation was digested to completion with Pst I and analyzed by agarose gel electrophoresis. The cDNA insert of the plasmid was excised by Pst I as a single 1200 bp fragment. Nick-translatedpIn 2-2 was used to probe a Northern blot of RNA from both untreated and N-(aminocarbonyl)-2-chlorobenzenesulfonamide-treated roots.
(§1) The ability at various substituted benzenesulfonamides and related compound to induce the expression of the 2-1, 2-2, and 5-2 genes of Missouri 17 corn was evaluated. Corn seeds were germinated and grown hydroponically in 2 liter beakers as described in Example 1. On the tenth day, plants were transferred into fresh 0.5× Hoagland's solution containing the chemical to be tested. Root tissue was harvested from the plants after six hours of chemical treatment, quick-frozen by immersion in liquid N2, and stored at -80° C. until analyzed.
(§2) Details of the RNA isolation and slot blot analysis procedures are presented in Example 1. Total RNA was prepared from the root tissue of plants that had been treated with various chemicals using the previously described guanidine thiocyanate procedure. Replicate blots, each consisting of 2 μg of total RNA from tissues treated with each of the chemicals shown in tables 8 and 9, were prepared on nitrocellulose membranes using a Minifold II® Slot-blotter (Schleicher & Schuell) following the manufacturer's recommeneded procedure. Replicate blots were prehybridized and hybridized with cDNA probes made by nick translation of the purified cDNA inserts from plasmid pIn 2-1, pIn 2-2-3, and pIn 5-2. Slot blots were washed as described in Example 1 and exposed to Kodak X-OMAT XAR-5 film for 24 hours at -80° C. using a single Du Pont Lightning Plus intensifying screen. Film was developed using a Kodak X-OMAT film processor. The abililty of a chemical to induce the mRNA encoded by the three inducible genes was evaluated in one of two ways. Qualitative evaluation was performed by direct visual comparison of the autoradiographic signal intensities on the films for the hybridization of each probe to the different RNA samples. Quantitative evaluation was performed by cutting each slot containing hybridized RNA from the blot, immersing it in 2 ml of Du Pont ECONOFLUOR® scintillation cocktail and counting the radioactivity in each slot in a scintillation counter. The net amount of radioactivity hybridizing to N-(aminocarbonyl)-2-chlorobenzenesulfonamide-treated RNA after subtraction of radioactivity hybridizing to untreated RNA is presented in Table 15.

[4] = tested on: 5-2 gene (In 5-2 mRNA); test: RNA slot blot / Northern analysis of 5-2 mRNA in roots of chemically treated corn; type: in vivo, corn (Missouri 17); conditions: 200 mg/l hydroponic, six hours, corn roots, slot blot 2 μg total RNA
Method: Details of the techniques used to perform Example 3 are presented in Example 1. The cDNA library made from poly (A)+ RNA from the roots of N-(aminocarbonyl)-2-chlorobenzenesulfonamide-treated Missouri 17 corn plants described in Example 1 was analyzed for additional cDNA clones representing N-(aminocarbonyl)-2-chlorobenzenesulfonamide-induced mRNAs. […] This colony was designated In 5-2.
A small scale plasmid preparation was performed on an overnight culture of In 5-2 and an aliquot of the plasmid, designated pIn 5-2, was nick-translated as described earlier. Slot blot analysis was performed as described in Example 1 using nick-translated In 5-2 plasmid. […] This plasmid was designated pIn 5-2.
An aliquot of the small scale plasmid preparation of pIn 5-2 was digested to completion with PSt I and analyzed by agarose gel electrophoresis. The cDNA insert of the plasmid was excised as a single 420 bp Pst I fragment. Plasmid pin 5-2 was nick-translated and used to probe a Northern blot of RNA from both untreated and N-(aminocarbonyl)-2-chlorobenzenesulfonamide-treated roots.
as §1, §2

[5] = tested on: 2-2 corn promoter; test: Transient GUS expression assay, 2-2 corn promoter/GUS constructions in transformed rice protoplasts
Method: Cell counts were made with a Fuchs-Rosenthal hemocytometer.
Protoplasts were transformed as follows: Multiple aliquots of the protoplasts (5-10×10^6 cells) were centrifuged gently (80 g) for 4 minutes in sterile tubes. The supernatant was discarded and the cells were resuspended in 1 ml of Kern's F, pH 5.8 buffer. Ten μg of transforming DNA in less than 15 μl of TE pH 8.0 were added per million protoplasts. […] The resulting protoplast cell suspension was mixed gently and incubated at room temperature for 20 minutes. A volume of 13-15 mls of Kren's F, pH 7.0 solution was then added to dilute out PEG.
The transformed protoplasts were collected by centrifugation at 80 g for 4 minutes. The supernatant was discarded and the protoplasts were resuspended in 2.0 ml of Kren's F, pH 5.8. The protoplast sample was divided into two 1 ml aliquots. One ml of protoplast medium was added to one aliquot of the protoplasts, while 1 ml of the protoplast medium containing 100 μg/ml N-(aminocarbonyl)-2-chlorobenzenesulfonamide was added to the other aliquot.
The inducibility of the recombinant GUS genes whose expression were controlled by 2-1 corn gene promoter and downstream sequences were determined by measuring the level of the β-glucuronidase enzyme activity in protoplasts cultured in the presence and absence of N-(aminocarbonyl)-2-chlorobenzenesulfonamide. GUS activity was assayed by harvesting protoplasts in a clinical centrifuge at 80 g for 5 minutes, and resuspending them in 1.0 ml 1× GUS lysis buffer (50 mM sodium phosphate pH 7.0, 10 mM β-mercaptoethanol, 10 mM EDTA, 0.1% Triton X-100, 0.1% N-lauroylsarcosine). The suspension containing the lysed protoplasts was vortexed and spun at top speed in a table top clinical centrifuge for 5 minutes. Eighteen μl of the supernatant was transferred to a tube containing 782 μl of water for determination of protein content in the protoplast lysate. […] A protein concentration curve was prepared using bovine serum albumin as a standard. The protein content, so determined, was multiplied by a factor of 7.2 to give the protein content in 130 μl of extract (the amount of extract present in a single time point of the assay-see below). Of the remaining supernatant,585 μl was transferred to a fresh tube.
The substrate for the GUS assay was 4-methyl-umbelliferyl-β-D-glucuronide (4-MUG) and was obtained from Sigma Chemical Co., St. Louis Mo. […] 4-MUG was prepared as a 10 mM stock in 1× GUS buffer. Sixty-five μl of a pre-warmed (37° C.) 10 mM 4-MUG stock was added to the pre-warmed 585 μl protoplast extract, and a 100 μl aliquot of the resulting mixture was transferred to a well of a 24-well microtiter dish containing 0.9 ml of 0.2M Na2 CO3. Similar aliquots are removed at 1 hour, 2 hour, and 3 hours. The 4-MU flourescence of individual samples, from each time point was determined quantitatively using an excitation wavelength of 365 nm and measuring flourescence at an emission wavelength of 455 nm. […] GUS activity in the transient assay was expressed as picomoles of 4-MU produced per μg protein per hour.

[6] = tested on: metabolism of chlorsulfuron and metsulfuron methyl; conditions: wheat and corn following application of the antidote; cited from earlier work
[7] = tested on: petunia P6.1 gene (P6 RNA); test: Northern / RNAse protection analysis of P6 RNA in roots of chemically treated petunia; type: in vivo, Petunia (Mitchell); conditions: hydroponic 100 mg/l, roots
Text: Petunia (Mitchell) seeds were germinated in soil and allowed to grow for one month under standard greenhouse conditions. Plants were transferred to a hydroponic growth apparatus in a greenhouse using foam plugs to support the plants. These plugs were then placed in holes in a wooden bDard and placed over a stainless steel sink containing 0.5× Hoagland's solution. The solution was aerated using standard aquarium pumps, and was changed weekly. After one month of hydroponic growth, plants were transferred to stainless steel trays containing either fresh 0.5 × Hoagland's or 0.5× Hoagland's containing 0.2 g per liter of N-(aminocarbonyl)-2-chlorobenzenesulfonamide. Root tissue was harvested after six hours of treatment.
Ten μg (2 mg/ml) of total RNA from control and N-(aminocarbonyl)-2-chlorobenzenesulfonamide-treated roots was denatured by adding 10 μl of deionized formamide, 3.5 μl formaldehyde, 4 μl 5× MEN buffer (40 mM MOPS pH 7.0, 10 mM sodium acetate, 1 mM EDTA) and incubating at 65° C. for 15 minutes. […] RNA was stained in the presence of 10 mM sodium phosphate pH 6.8 and 1 μg/ml acridine orange for 30 minutes. The gel was then desrained in 10 mM sodium phosphate for 30 minutes, and the RNA was visualized on a UV transilluminator, photographed, and blotted to nitrocellulose (Millipore HAWP). To do this, Whatman 3MM paper was placed below the gel on a glass plate so that the ends of the paper extended into 20× SSC. A sheet of nitroccllulose which had been prewet with 2× SSC was placed on top of the gel followed by a layer of Whatman 3MM, then a stack of paper towels 10 cm high. A glass plate and weight were then placed on top of the stack. Following an overnight transfer, the filter was rinsed briefly in 2× SSC, air dried, and baked in vacuo for 2 hours at 80° C.
The filters were prehybridized for 5 hours in plastic dishes at 42° C. using the hybridization buffer described earlier. Plasmid p6.1 was nick-translated by combining 1 μg of DNA with 5 μl 10× buffer (0.5M Tris-HCl pH 8.0, 0.1M MgSO4, 10 mM DTT and 0.5 mg/ml BSA), 5 μl 0.3 uM d(AGT)TP, 5 μl ^32 P-dCTP (Amersham, 10 mCi/ml, 400 Ci/mmole), 1 μl DNA polymerase 1 (5 U/μl, Boehringer-Mannheim), and 1 μl of 0.1 μg/ml DNAse 1 in a total volume of 50 μl. […] The reaction was then incubated for 5 minutes at 70° C., and labelled DNA was separated from unincorporated nucleotides by Sephadex® G-50 column chromatography. The prehybridization solution was removed from the bag and replaced with hybridization solution containing nick-translated plasmid P6.1 DNA at a concentration of 1×10^6 cpm/ml. […] Filters were washed twice with 2× SSC, 0.1% SDS at 42° C. followed by two washes in 0.1× SSC, 0.1%SDS at 60° C.
RNA probes complementary to the coding strands in both P644 and P645 were synthesized in the following reaction: 50 uCi ^32 P-UTP, 2 μl 5× transcription buffer (200 mM Tris-HCl pH 7.5, 30 mM MgCl2, 10 mM spermidine), 0.5 μl 0.2M DTT, and 0.5 μl of either T3 polymerase (plasmid P645) or T7 polymerase (plasmid P644). Incubation was carried out at 40° C. for 1 hour. The DNA template was hydrolyzed for 15 minutes at 37° C. by addition of 30 μl H2 O, 1 μl RNAsin, 2,5 μl vanadyl ribonucleoside complex, 6 μl 5× transcription buffer and 1 μl DNAse 1 (1 mg/ml) to the transcription reaction. The reaction was extracted with an equal volume of phenol:chloroform (1:1 v/v). The RNA was precipitated once with ethanol in the presence of ammonium acetate and once with ethanol in the presence of sodium acetate. The pellets were dissolved in 25 μl of TE. Ten μg of RNA from untreated and N-(aminocarbonyl)-2-chlorobenzenesulfonamide-treated plants were mixed with 1×10^6 cpm of each of the two probes in 30 ul of hybridization buffer (40 mM PIPES pH 6.7, 0.4M NaCl, 1 mM EDTA). […] Single stranded RNA was selectively digested by adding 300 μl RNAse A and RNAse T1 to 40 μg/ml and 2 μg/ml respectively in 10 mM Tris-HCl pH 7.5, 5 mM EDTA, and 300 mM NaCl.

[8] = rice protoplasts transformed with pTDS133, compound at 100 μg/l

NS(=O)(=O)c1ccccc1Cl [2-chlorobenzenesulfonamide, reference compound]
hybridization of pIn 2-1 to root RNA (RNA slot blot) ([1]; hydroponic 0.2 g/liter): extremely weakly, if at all

COc1nc(C)nc(NC(=O)NS(=O)(=O)c2ccccc2Cl)n1 [Chlorsulfuron, chlorsulfuron, reference compound]
Callus formation (shoots whose leaf pieces formed callus / shoots tested) [2]: 12/16

CCCCNC(=O)NS(=O)(=O)c1ccccc1P(=O)(OCC)OCC [Compound 1]
In 2-2: net amount of radioactivity hybridizing to treated RNA after subtraction of untreated RNA [3]: 332 | In 2-1: net amount of radioactivity hybridizing to treated RNA after subtraction of untreated RNA [1]: 204 | In 5-2: net amount of radioactivity hybridizing to treated RNA after subtraction of untreated RNA [4]: 47

CCCCNC(=O)NS(=O)(=O)c1cccc(Cl)c1S(=O)(=O)N(C)C [Compound 2 (Table 15), N'-[2-(n-butylaminocarbonyl)]-6-chloro-N,N-dimethyl-1,2-benzene-disulfonamide]
ability to induce GUS activity in transformed protoplasts (rank) ([5]; rice protoplasts transformed with pTDS133): most active

NC(=O)NS(=O)(=O)c1ccccc1Cl [Compound 5]
In 2-2: net amount of radioactivity hybridizing to treated RNA after subtraction of untreated RNA [3]: 136 | In 2-1: net amount of radioactivity hybridizing to treated RNA after subtraction of untreated RNA [1]: 296 | AVE. INDUCTION [5, 8]: 7.75 | Assay 1 (induction of GUS activity) [5, 8]: 8.7 | Assay 2 (induction of GUS activity) [5, 8]: 6.8 | Assay 3 (induction of GUS activity) [5, 8]: 43 | In 5-2: net amount of radioactivity hybridizing to treated RNA after subtraction of untreated RNA [4]: 59

CCCCNC(=O)NS(=O)(=O)c1ccoc1C(=O)OC [Compound 14]
AVE. INDUCTION [5, 8]: 27.3 | Assay 3 (induction of GUS activity) [5, 8]: 27.3

CCCCNC(=O)NS(=O)(=O)c1cccc(C)c1S(=O)(=O)CCC [Compound 15]
AVE. INDUCTION [5, 8]: 24 | Assay 3 (induction of GUS activity) [5, 8]: 24.1

CCCCNC(=O)NS(=O)(=O)c1ccccc1S(=O)(=O)N(C)C(F)(F)C(F)F [Compound 16]
AVE. INDUCTION [5, 8]: 30 | Assay 3 (induction of GUS activity) [5, 8]: 30.2

CNC(=O)NS(=O)(=O)c1c(C)cccc1OC [Compound 17]
AVE. INDUCTION [5, 8]: 16.6 | Assay 3 (induction of GUS activity) [5, 8]: 16.6

CN(C)C(=O)c1cccnc1S(=O)(=O)NC(N)=O [Compound 18]
AVE. INDUCTION [5, 8]: 1.6 | Assay 3 (induction of GUS activity) [5, 8]: 1.6

CCCCNC(=O)NS(=O)(=O)c1cnccc1Cl [Compound 19]
AVE. INDUCTION [5, 8]: 5.2 | Assay 3 (induction of GUS activity) [5, 8]: 5.2

CCCNC(=O)NS(=O)(=O)c1ccccn1 [Compound 20]
AVE. INDUCTION [5, 8]: 38.6 | Assay 3 (induction of GUS activity) [5, 8]: 38.6

CC(C)(C)NC(=O)NS(=O)(=O)c1ccc(Cl)nc1Cl [Compound 21]
AVE. INDUCTION [5, 8]: 24.2 | Assay 3 (induction of GUS activity) [5, 8]: 24.2

C=CCN(CC=C)C(=O)C(Cl)Cl [N,N-diallyl-2,2-dichloroacetamide]
increases in the metabolism rates of chlorsulfuron and metsulfuron methyl [6]: 2 to 5 fold

O=C(O)c1ccccc1O [Salicylic acid, reference compound]
time at which P6 RNA level declined to that seen in untreated plants [7]: ≤ 6 h | time at which maximal levels of P6 RNA were seen ([7]; sampled at 2, 4, 6 and 22 hours): ≤ 2 h

N#CCON=C(C#N)c1ccccc1 [cyometrinil]
increases in the metabolism rates of chlorsulfuron and metsulfuron methyl [6]: 2 to 5 fold

O=C1OC(=O)c2cccc3cccc1c23 [napthalic anhydride]
increases in the metabolism rates of chlorsulfuron and metsulfuron methyl [6]: 2 to 5 fold
